Measurements as given in patent publication US20250288514A1, “SKIN-SOOTHING COMPOSITION” (Amorepacific Corporation, priority 2024, published 2025).

Key:
claudin-1 protein = assay: Skin cohesion evaluation: claudin-1 protein expression in artificial skin treated with inflammation cocktail; assay type: cell-based; conditions: inflammation cocktail IFN-γ (20 ng/ml)+TNF-α (20 ng/ml), compositions at 50 ppm, FIG. 2
filaggrin protein = assay: Moisturizing factor evaluation: filaggrin protein expression in artificial skin treated with inflammation cocktail; assay type: cell-based; conditions: inflammation cocktail IFN-γ (20 ng/ml)+TNF-α (20 ng/ml), compositions at 50 ppm, FIG. 3
PGE2 (Prostaglandin E2) = assay: Skin redness evaluation: amount of PGE2 in artificial skin treated with inflammatory factor; assay type: cell-based; conditions: TNF-α+IFN-γ (20 ng/ml), FIG. 4
Source text: PGE2 is a factor that induces vasodilation and causes skin redness, wherein the smaller amount of PGE2, the less vasodilation induction, thereby suppressing the skin redness, and the skin redness evaluation results are shown in FIG. 4.

mast cell degranulation = conditions: stated as known; cited from earlier work
[1] = Dilution of stock in medium (state of the composition); assay type: physicochemical; conditions: 50 ppm in medium, from stock in purified water or DMSO
Source text: Because PEA was suspended at the 50 ppm, this composition was not used for an experiment.

[2] = Cell toxicity of the composition; conditions: 50 ppm
Experimental: A composition was prepared by adding 1 g of (−)-epigallocatechin gallate 5 (EGCG) to 100 g of purified water or dimethyl sulfoxide (DMSO) to prepare a stock and diluting the stock to 50 ppm.

Compound: CCCCCCCCCCCCCCCC(=O)NCCO [Comparative Example 4, palmitoylethanolamide]
- expression level of claudin-1 protein (claudin-1 protein): not recovered from the decrease in the protein expression of the claudin-1 protein
- expression level of filaggrin protein (filaggrin protein): not recovered from the decrease of the protein expression

Compound: Oc1cc(O)c2c(c1)O[C@H](c1ccc(O)c(O)c1)[C@H](O)C2 [Example 3, epicatechin]
- amount of PGE2 (PGE2 (Prostaglandin E2)): the amount of PGE2 was suppressed
- expression level of claudin-1 protein (claudin-1 protein): recovered from the decrease in the protein expression of the claudin-1 protein
- expression level of filaggrin protein (filaggrin protein): recovered from the decrease of the protein expression

Compound: CCCCCCCCCCCCCCCC(=O)NCCO [PEA, palmitoylethanolamide]
- effect of suppressing the mast cell degranulation (mast cell degranulation): no effect of suppressing the mast cell degranulation
- state on dilution in medium [1]: suspended

Compound: (−)-epigallocatechin gallate [Comparative Example 7]
- expression level of claudin-1 protein (claudin-1 protein): not recovered from the decrease in the protein expression of the claudin-1 protein
- expression level of filaggrin protein (filaggrin protein): not recovered from the decrease of the protein expression

Compound: (−)-epigallocatechin gallate [EGCG]
- cell toxicity [2]: cell toxicity
